Experimental data: ChEMBL document CHEMBL1132704, “Design and synthesis of sulfonyl-substituted 4,5-diarylthiazoles as selective cyclooxygenase-2 inhibitors” (Bioorg Med Chem Lett, 1999)

What was measured:
[1] = molecular target: T1, Prostaglandin G/H synthase 2 (Homo sapiens, UniProt P35354)
T1 sequence (P35354 whole entry): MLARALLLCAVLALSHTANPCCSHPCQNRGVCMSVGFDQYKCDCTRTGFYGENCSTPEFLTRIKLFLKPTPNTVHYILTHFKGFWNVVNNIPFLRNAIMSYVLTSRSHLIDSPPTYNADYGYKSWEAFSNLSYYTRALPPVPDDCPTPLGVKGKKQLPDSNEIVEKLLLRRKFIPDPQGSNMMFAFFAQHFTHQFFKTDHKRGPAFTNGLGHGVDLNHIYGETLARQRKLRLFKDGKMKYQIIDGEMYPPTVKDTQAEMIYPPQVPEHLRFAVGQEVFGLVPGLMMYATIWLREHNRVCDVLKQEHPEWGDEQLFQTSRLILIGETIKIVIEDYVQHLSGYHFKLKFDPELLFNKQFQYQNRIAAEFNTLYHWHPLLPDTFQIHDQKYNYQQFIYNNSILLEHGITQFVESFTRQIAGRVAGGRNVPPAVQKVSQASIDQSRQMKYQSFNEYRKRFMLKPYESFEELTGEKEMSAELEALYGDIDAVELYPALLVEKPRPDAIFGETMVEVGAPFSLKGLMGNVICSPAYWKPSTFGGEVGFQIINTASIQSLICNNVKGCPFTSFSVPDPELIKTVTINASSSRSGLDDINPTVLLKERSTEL

[2] = molecular target: Prostaglandin G/H synthase 1 (Homo sapiens, UniProt P23219)
Description: Inhibition of human cyclooxygenase-1 (hCOX-1) enzyme.

[3] = system: Rattus norvegicus; assay: Compound was evaluated for the antiinflammatory activity in vivo in the carrageenan rat paw edema (CPE); format: functional
[4] = system: Rattus norvegicus; assay: Compound was evaluated for the percent inhibition of hyperalgesia at an effective dose of 20 mg/kg in rat; format: functional

Chain of Prostaglandin G/H synthase 1 (P23219 whole entry): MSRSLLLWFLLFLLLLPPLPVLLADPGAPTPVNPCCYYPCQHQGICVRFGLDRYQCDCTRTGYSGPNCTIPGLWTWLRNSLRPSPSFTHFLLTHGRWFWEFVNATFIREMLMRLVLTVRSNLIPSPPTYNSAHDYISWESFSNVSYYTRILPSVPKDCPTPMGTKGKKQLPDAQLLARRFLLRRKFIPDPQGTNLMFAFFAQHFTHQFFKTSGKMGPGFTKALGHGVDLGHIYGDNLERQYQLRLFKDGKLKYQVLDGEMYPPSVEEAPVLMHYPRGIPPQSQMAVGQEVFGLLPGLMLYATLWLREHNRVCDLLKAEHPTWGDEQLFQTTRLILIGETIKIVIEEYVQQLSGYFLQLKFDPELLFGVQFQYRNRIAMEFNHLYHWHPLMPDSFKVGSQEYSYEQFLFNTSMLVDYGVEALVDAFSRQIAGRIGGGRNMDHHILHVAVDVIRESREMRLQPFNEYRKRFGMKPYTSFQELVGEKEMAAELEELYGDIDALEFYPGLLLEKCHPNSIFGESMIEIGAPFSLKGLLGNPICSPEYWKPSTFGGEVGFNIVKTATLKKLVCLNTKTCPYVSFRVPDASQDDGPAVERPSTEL

## CS(=O)(=O)c1ccc(-c2sc(CCCc3ccc(Br)cc3)nc2-c2ccc(F)cc2)cc1
[1]
  IC50: 0.007 µM
[2]
  IC50: > 10 µM

## CS(=O)(=O)c1ccc(-c2sc(-c3cccs3)nc2-c2ccc(F)cc2)cc1
[1]
  IC50: 0.021 µM
[2]
  IC50: > 100 µM

## CS(=O)(=O)c1ccc(-c2sc(CCCc3ccccc3)nc2-c2ccc(F)cc2)cc1
[1]
  IC50: 0.52 µM
[2]
  IC50: > 1000 µM

## Cc1nc(-c2ccc(F)cc2)c(-c2ccc(S(C)(=O)=O)cc2)s1
[1]
  IC50: 0.11 µM
[2]
  IC50: > 10 µM

## CS(=O)(=O)c1ccc(-c2sc(-c3ccncc3)nc2-c2ccc(F)cc2)cc1
[1]
  IC50: 1.6 µM
[2]
  IC50: > 100 µM

## CS(=O)(=O)c1ccc(-c2sc(-c3ccccc3Cl)nc2-c2ccc(F)cc2F)cc1
[1]
  IC50: 0.021 µM

## CS(=O)(=O)c1ccc(-c2nc(C(F)(F)F)sc2-c2ccc(F)cc2)cc1
[1]
  IC50: 0.006 µM
[2]
  IC50: 1.07 µM

## CC(C)(C)c1nc(-c2ccc(F)cc2)c(-c2ccc(S(C)(=O)=O)cc2)s1
[1]
  IC50: 0.11 µM
[2]
  IC50: > 100 µM

## CS(=O)(=O)c1ccc(-c2sc(-c3ccccc3Cl)nc2-c2cccs2)cc1
[2]
  IC50: > 100 µM

## CC(C)(C)c1ccc(-c2nc(-c3ccc(F)cc3)c(-c3ccc(S(C)(=O)=O)cc3)s2)cc1
[1]
  IC50: > 100 µM
[2]
  IC50: > 100 µM

## CS(=O)(=O)c1ccc(-c2sc(-c3ccccc3Cl)nc2-c2cc(F)ccc2F)cc1
[1]
  IC50: > 100 µM
[2]
  IC50: > 100 µM

## CS(=O)(=O)c1ccc(-c2sc(-c3ccccc3Cl)nc2-c2ccsc2)cc1
[2]
  IC50: > 100 µM

## CS(=O)(=O)c1ccc(-c2sc(Cc3ccccc3)nc2-c2ccc(F)cc2)cc1
[1]
  IC50: 0.018 µM
[2]
  IC50: > 100 µM

## CS(=O)(=O)c1ccc(-c2sc(C(F)(F)F)nc2-c2ccc(F)cc2)cc1
[1]
  IC50: 0.023 µM
[2]
  IC50: > 100 µM

## Cc1nc(-c2ccc(S(C)(=O)=O)cc2)c(-c2ccc(F)cc2)s1
[1]
  IC50: 0.12 µM
[2]
  IC50: > 100 µM

## CCc1nc(-c2ccc(F)cc2)c(-c2ccc(S(C)(=O)=O)cc2)s1
[1]
  IC50: 0.023 µM
[2]
  IC50: 19 µM

## CS(=O)(=O)c1ccc(-c2sc(-c3cccnc3)nc2-c2ccc(F)cc2)cc1
[1]
  IC50: 0.43 µM
[2]
  IC50: > 1000 µM

## CS(=O)(=O)c1ccc(-c2sc(-c3ccccc3Cl)nc2-c2ccc(F)cc2)cc1
[3]
  ED50: 20 mg/kg
[4]
  inhibition in vivo at 20 mg/kg: 27%
[1]
  IC50: 0.05 µM
[2]
  IC50: > 100 µM

## CS(=O)(=O)c1ccc(-c2sc(-c3ccc(Cl)cc3)nc2-c2ccc(F)cc2)cc1
[1]
  IC50: 0.05 µM
[2]
  IC50: > 100 µM

## CS(=O)(=O)c1ccc(-c2sc(CCc3ccccc3)nc2-c2ccc(F)cc2)cc1
[1]
  IC50: 0.032 µM
[2]
  IC50: > 100 µM

## COc1ccc(-c2nc(-c3ccc(F)cc3)c(-c3ccc(S(C)(=O)=O)cc3)s2)cc1
[1]
  IC50: 0.27 µM
[2]
  IC50: > 10 µM

## CCOC(=O)c1nc(-c2ccc(F)cc2)c(-c2ccc(S(C)(=O)=O)cc2)s1
[1]
  IC50: 0.61 µM
[2]
  IC50: > 100 µM

## CS(=O)(=O)c1ccc(-c2sc(-c3ccccc3Cl)nc2-c2ccccc2F)cc1
[1]
  IC50: 0.01 µM
[2]
  IC50: > 100 µM

## CS(=O)(=O)c1ccc(-c2sc(-c3ccccc3Cl)nc2-c2cccc(F)c2)cc1
[1]
  IC50: 0.016 µM
[2]
  IC50: > 100 µM

## CS(=O)(=O)c1ccc(-c2nc(-c3ccccc3)sc2-c2ccc(F)cc2)cc1
[1]
  IC50: 0.54 µM
[2]
  IC50: > 100 µM

## CS(=O)(=O)c1ccc(-c2sc(CC#N)nc2-c2ccc(F)cc2)cc1
[1]
  IC50: 0.35 µM
[2]
  IC50: > 100 µM

## CS(=O)(=O)c1ccc(-c2sc(-c3ccccc3)nc2-c2ccc(F)cc2)cc1
[1]
  IC50: > 30 µM
[2]
  IC50: > 100 µM

## CS(=O)(=O)c1ccc(-c2sc(-c3ccccc3Cl)nc2-c2ccccc2)cc1
[1]
  IC50: 0.01 µM
[2]
  IC50: > 100 µM
